Patent publication US11840686B2, “Modulation of prekallikrein (PKK) expression” (Ionis Pharmaceuticals, Inc., priority 2013, dated 2023)
Strand notation (5' to 3'): a small letter for the sugar, then the base; units joined by * are phosphorothioate-linked, units joined directly phosphodiester-linked; [ ] holds rarer units or linkages, { } end groups; capitals alone tell only the bases. e = 2'-O-(2-methoxyethyl) (MOE); [5mC] = 5-methylcytosine; d = 2'-deoxy (DNA)

Tests used:
[1] = test system: human PKK mRNA; assay: Antisense inhibition of human PKK mRNA in HepaRG cells, 5,000 nM (Example 2); type: cell-based
How it was run: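 HepaRG cells (20,000/well) electroporated with 5,000 nM MOE gapmer (phosphorothioate backbone, 5-methylcytosines) and harvested after ~24 h. PKK mRNA measured by qRT-PCR with primer probe set RTS3454, normalized to RIBOGREEN total RNA; percent inhibition versus untreated cells.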

[2] = test system: human PKK mRNA; assay: Dose-dependent antisense inhibition of human PKK in HepaRG cells, 0.19-5.00 uM (Example 5); type: cell-based
How it was run: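 HepaRG cells (20,000/well) were electroporated with antisense oligonucleotide at 0.19, 0.56, 1.67 and 5.00 μM and treated for about 16 hours. PKK mRNA was quantified by qRT-PCR with primer probe set RTS3454, normalised to RIBOGREEN total RNA, and IC50 was derived per oligonucleotide.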

[3] = HepaRG cells, electroporation, approximately 16 hours, Table 38
[4] = 4 point dose response, HepaRG cells, Table 38
[5] = HepaRG cells, electroporation, approximately 16 hours, Table 40
[6] = Table 34, HepaRG, electroporation, ~16 h
[7] = Table 34, PKK mRNA, HepaRG, electroporation, ~16 h
[8] = human PKK mRNA in HepaRG cells, 5-10-5 gapmers, Table 14
[9] = HepaRG cells, electroporation, approximately 16 hours, Table 37
[10] = HepaRG cells, electroporation, approximately 16 hours, Table 35

546834 (eA*eA*e[5mC]*eT*e[5mC]*dT*dA*dA*d[5mC]*dA*dG*dT*dA*dT*d[5mC]*eA*e[5mC]*eT*eG*eT; antisense) [compound 546834]
% inhibition ([1]; Table 13, human PKK mRNA in HepaRG cells, 5-10-5 gapmers): 86% | percent inhibition of PKK at 0.19 μM [2, 3]: 1% | percent inhibition of PKK at 0.56 μM [2, 3]: 0% | percent inhibition of PKK at 1.67 μM [2, 3]: 30% | percent inhibition of PKK at 5.00 μM [2, 3]: 83% | IC50 [2, 4]: 2300 nM

546980 (eA*eG*e[5mC]*e[5mC]*e[5mC]*dT*d[5mC]*dA*dA*dT*dT*dG*dT*dT*dG*e[5mC]*eT*eG*eG*eT; antisense) [compound 546980]
% inhibition ([1]; HepaRG cells, 5,000 nM antisense oligonucleotide, 5-10-5 gapmers, Table 16): 79% | percent inhibition of PKK at 0.19 μM [2, 5]: 0% | percent inhibition of PKK at 0.56 μM [2, 5]: 18% | percent inhibition of PKK at 1.67 μM [2, 5]: 29% | percent inhibition of PKK at 5.00 μM [2, 5]: 80% | IC50 ([2]; 4 point dose response, HepaRG cells, Table 40): 2200 nM

547456 (antisense eG*e[5mC]*eG*eA*eT*dA*dT*d[5mC]*dA*dT*dG*dA*dT*dT*d[5mC]*e[5mC]*e[5mC]*eT*eT*e[5mC]) [compound 547456]
% inhibition ([1]; Table 9 experiment, HepaRG cells, 20,000 cells per well, electroporation with 5,000 nM antisense oligonucleotide, approx. 24 hours, PKK mRNA by RT-PCR (RTS3454), relative to untreated control cells): 89% | % inhibition ([1]; Table 10 experiment, HepaRG cells, 20,000 cells per well, electroporation with 5,000 nM antisense oligonucleotide, approx. 24 hours, PKK mRNA by RT-PCR (RTS3454), relative to untreated control cells): 96% | percent inhibition of PKK at 0.19 μM [2, 6]: 12% | percent inhibition of PKK at 0.56 μM [2, 6]: 67% | percent inhibition of PKK at 1.67 μM [2, 6]: 66% | percent inhibition of PKK at 5.00 μM [2, 6]: 80% | IC50 [2, 7]: 1000 nM

547622 (antisense eG*eT*e[5mC]*eA*e[5mC]*dT*dG*dT*dA*d[5mC]*d[5mC]*dT*dA*dT*dA*eA*e[5mC]*eT*e[5mC]*eT) [compound 547622]
% inhibition [1, 8]: 88% | percent inhibition of PKK at 0.19 μM [2, 9]: 0% | percent inhibition of PKK at 0.56 μM [2, 9]: 47% | percent inhibition of PKK at 1.67 μM [2, 9]: 79% | percent inhibition of PKK at 5.00 μM [2, 9]: 90% | IC50 ([2]; 4 point dose response, HepaRG cells, Table 37): 900 nM

546253 (eG*eT*e[5mC]*eT*e[5mC]*dT*dT*dG*dG*d[5mC]*dA*dA*dA*d[5mC]*dA*eT*eT*e[5mC]*eA*e[5mC]; antisense) [compound 546253]
% inhibition ([1]; Table 8, HepaRG cells, electroporation with 5,000 nM antisense oligonucleotide, approx. 24 hours, PKK mRNA by RT-PCR (RTS3454), relative to untreated control cells): 98% | percent inhibition of PKK at 0.19 μM [2, 6]: 1% | percent inhibition of PKK at 0.56 μM [2, 6]: 13% | percent inhibition of PKK at 1.67 μM [2, 6]: 46% | percent inhibition of PKK at 5.00 μM [2, 6]: 81% | IC50 [2, 7]: 1700 nM

547647 (eG*eT*e[5mC]*e[5mC]*eT*dA*dT*dA*dT*d[5mC]*dA*d[5mC]*dT*dG*dT*eA*e[5mC]*e[5mC]*eT*eA; antisense) [compound 547647]
% inhibition ([1]; human PKK mRNA, HepaRG cells, 5-10-5 motif oligonucleotides targeting SEQ ID NO: 1 and 10): 92% | percent inhibition of PKK at 0.19 μM [2, 10]: 1% | percent inhibition of PKK at 0.56 μM [2, 10]: 70% | percent inhibition of PKK at 1.67 μM [2, 10]: 72% | IC50 ([2]; 4 point dose response, HepaRG cells, Table 35): 800 nM

547615 (antisense eT*e[5mC]*e[5mC]*eT*eA*dT*dA*dT*d[5mC]*dA*d[5mC]*dT*dG*dT*dA*e[5mC]*e[5mC]*eT*eG*eT) [compound 547615]
% inhibition [1, 8]: 84% | percent inhibition of PKK at 0.19 μM [2, 3]: 20% | percent inhibition of PKK at 0.56 μM [2, 3]: 26% | percent inhibition of PKK at 1.67 μM [2, 3]: 41% | percent inhibition of PKK at 5.00 μM [2, 3]: 84% | IC50 [2, 4]: 1400 nM
